Experimental data as given in ChEMBL document CHEMBL4507329, “Data for DCP probe BTZO-1” (2021).

Legend:
[1] = biological target: Protein kinase C delta type (Homo sapiens) (UniProt Q05655); conditions: Compound concentration 1000.0 nM
[2] = biological target: Casein kinase I isoform alpha (Homo sapiens) (UniProt P48729); conditions: Compound concentration 1000.0 nM
[3] = biological target: G protein-coupled receptor kinase 4 (Homo sapiens) (UniProt P32298); conditions: Compound concentration 1000.0 nM
[4] = biological target: Tyrosine-protein kinase Tec (Homo sapiens) (UniProt P42680); conditions: Compound concentration 1000.0 nM
[5] = biological target: Serine/threonine-protein kinase D2 (Homo sapiens) (UniProt Q9BZL6); conditions: Compound concentration 1000.0 nM
[6] = biological target: Ephrin type-B receptor 6 (Homo sapiens) (UniProt O15197); conditions: Compound concentration 1000.0 nM
[7] = biological target: Beta-3 adrenergic receptor (Homo sapiens) (UniProt P13945); conditions: Compound concentration 10.0 uM
Beta-3 adrenergic receptor (Homo sapiens), sequence (P13945 whole entry, looked up): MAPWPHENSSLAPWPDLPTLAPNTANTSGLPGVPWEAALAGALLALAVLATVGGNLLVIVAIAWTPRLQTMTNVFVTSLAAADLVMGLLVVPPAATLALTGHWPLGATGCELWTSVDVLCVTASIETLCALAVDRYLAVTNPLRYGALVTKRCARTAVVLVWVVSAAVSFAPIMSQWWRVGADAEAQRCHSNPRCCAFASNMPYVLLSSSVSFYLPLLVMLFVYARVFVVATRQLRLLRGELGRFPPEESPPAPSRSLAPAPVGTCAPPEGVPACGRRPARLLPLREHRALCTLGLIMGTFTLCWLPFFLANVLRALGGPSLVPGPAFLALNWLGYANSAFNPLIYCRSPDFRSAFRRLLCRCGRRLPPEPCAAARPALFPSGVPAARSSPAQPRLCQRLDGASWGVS

[8] = biological target: Tyrosine-protein kinase receptor UFO (Homo sapiens) (UniProt P30530); conditions: Compound concentration 1000.0 nM
[9] = biological target: 5-hydroxytryptamine receptor 1E (Homo sapiens) (UniProt P28566); conditions: Compound concentration 10.0 uM
5-hydroxytryptamine receptor 1E (Homo sapiens), sequence (P28566 whole entry): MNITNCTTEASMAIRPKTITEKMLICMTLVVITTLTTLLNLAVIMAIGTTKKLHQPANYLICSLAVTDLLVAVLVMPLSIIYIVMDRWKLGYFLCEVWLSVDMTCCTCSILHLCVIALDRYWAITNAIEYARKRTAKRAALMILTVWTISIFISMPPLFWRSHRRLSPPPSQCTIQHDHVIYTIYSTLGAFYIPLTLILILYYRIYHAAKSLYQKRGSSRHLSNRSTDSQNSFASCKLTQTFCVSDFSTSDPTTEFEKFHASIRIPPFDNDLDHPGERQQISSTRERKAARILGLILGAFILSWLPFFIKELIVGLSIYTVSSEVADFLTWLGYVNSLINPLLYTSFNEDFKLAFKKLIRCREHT

[10] = system: Mast/stem cell growth factor receptor Kit (Homo sapiens), P10721 [A829P]; conditions: Compound concentration 1000.0 nM
[11] = biological target: Sodium-dependent dopamine transporter (Homo sapiens) (UniProt Q01959); conditions: Compound concentration 10.0 uM
[12] = biological target: Serine/threonine-protein kinase RIO3 (Homo sapiens) (UniProt O14730); conditions: Compound concentration 1000.0 nM
[13] = biological target: Cyclin-dependent kinase 3 (Homo sapiens) (UniProt Q00526); conditions: Compound concentration 1000.0 nM
[14] = biological target: Ribosomal protein S6 kinase alpha-4 (Homo sapiens) (UniProt O75676); conditions: Compound concentration 1000.0 nM
Ribosomal protein S6 kinase alpha-4 (Homo sapiens), sequence (O75676 whole entry, looked up): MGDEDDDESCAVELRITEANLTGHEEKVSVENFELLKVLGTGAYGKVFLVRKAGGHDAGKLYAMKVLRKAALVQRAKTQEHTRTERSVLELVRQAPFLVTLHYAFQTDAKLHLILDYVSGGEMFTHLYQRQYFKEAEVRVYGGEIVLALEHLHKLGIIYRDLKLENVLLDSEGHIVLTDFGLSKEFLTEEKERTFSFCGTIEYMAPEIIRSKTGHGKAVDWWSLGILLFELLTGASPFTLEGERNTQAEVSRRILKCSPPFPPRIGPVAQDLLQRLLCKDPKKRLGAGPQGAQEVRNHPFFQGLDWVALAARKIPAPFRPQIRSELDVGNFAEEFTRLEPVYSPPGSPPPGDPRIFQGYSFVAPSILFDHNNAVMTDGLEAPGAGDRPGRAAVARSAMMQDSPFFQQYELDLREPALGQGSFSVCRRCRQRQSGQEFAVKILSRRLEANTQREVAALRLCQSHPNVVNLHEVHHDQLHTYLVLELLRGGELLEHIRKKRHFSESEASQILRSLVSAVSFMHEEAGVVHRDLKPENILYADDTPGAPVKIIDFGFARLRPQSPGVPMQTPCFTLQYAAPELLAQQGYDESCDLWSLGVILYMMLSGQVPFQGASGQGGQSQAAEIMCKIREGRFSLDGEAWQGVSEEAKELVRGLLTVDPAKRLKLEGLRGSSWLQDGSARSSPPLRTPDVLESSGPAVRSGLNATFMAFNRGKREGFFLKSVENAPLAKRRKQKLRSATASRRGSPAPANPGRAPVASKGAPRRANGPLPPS

[15] = biological target: Dual specificity testis-specific protein kinase 1 (Homo sapiens) (UniProt Q15569); conditions: Compound concentration 1000.0 nM
[16] = biological target: Receptor-interacting serine/threonine-protein kinase 4 (Homo sapiens) (UniProt P57078); conditions: Compound concentration 1000.0 nM
Receptor-interacting serine/threonine-protein kinase 4 (Homo sapiens), sequence (P57078 whole entry): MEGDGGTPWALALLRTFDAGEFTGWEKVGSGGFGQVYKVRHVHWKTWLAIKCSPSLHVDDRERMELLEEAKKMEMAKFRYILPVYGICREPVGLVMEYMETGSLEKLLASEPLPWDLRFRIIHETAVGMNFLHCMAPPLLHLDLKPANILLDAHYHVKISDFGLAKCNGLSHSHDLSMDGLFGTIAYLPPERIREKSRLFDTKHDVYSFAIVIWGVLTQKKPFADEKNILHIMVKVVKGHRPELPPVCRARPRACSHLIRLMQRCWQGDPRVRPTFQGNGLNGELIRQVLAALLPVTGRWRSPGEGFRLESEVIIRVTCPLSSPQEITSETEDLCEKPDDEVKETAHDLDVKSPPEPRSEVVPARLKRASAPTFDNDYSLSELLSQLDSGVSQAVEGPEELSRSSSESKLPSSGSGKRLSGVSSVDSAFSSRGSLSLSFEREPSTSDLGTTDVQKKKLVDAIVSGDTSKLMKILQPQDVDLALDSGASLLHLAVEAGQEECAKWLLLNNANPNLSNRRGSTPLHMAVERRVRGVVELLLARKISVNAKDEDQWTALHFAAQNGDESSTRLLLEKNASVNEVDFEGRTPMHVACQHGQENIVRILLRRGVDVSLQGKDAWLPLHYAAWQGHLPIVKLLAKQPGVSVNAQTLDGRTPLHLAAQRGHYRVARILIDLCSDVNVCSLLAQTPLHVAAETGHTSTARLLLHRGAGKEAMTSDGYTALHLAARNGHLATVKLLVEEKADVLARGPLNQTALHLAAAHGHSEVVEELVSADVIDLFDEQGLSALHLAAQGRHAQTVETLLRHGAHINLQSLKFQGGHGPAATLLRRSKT

[17] = biological target: Homeodomain-interacting protein kinase 3 (Homo sapiens) (UniProt Q9H422); conditions: Compound concentration 1000.0 nM
[18] = biological target: Ribosomal protein S6 kinase alpha-3 (Homo sapiens) (UniProt P51812); conditions: Compound concentration 1000.0 nM
[19] = biological target: LIM domain kinase 2 (Homo sapiens) (UniProt P53671); conditions: Compound concentration 1000.0 nM
[20] = biological target: Serine/threonine-protein kinase MRCK beta (Homo sapiens) (UniProt Q9Y5S2); conditions: Compound concentration 1000.0 nM
[21] = system: Proto-oncogene tyrosine-protein kinase receptor Ret (Homo sapiens), P07949 [V804M]; conditions: Compound concentration 1000.0 nM
Proto-oncogene tyrosine-protein kinase receptor Ret (Homo sapiens), P07949 [V804M], sequence (P07949 whole entry V804M): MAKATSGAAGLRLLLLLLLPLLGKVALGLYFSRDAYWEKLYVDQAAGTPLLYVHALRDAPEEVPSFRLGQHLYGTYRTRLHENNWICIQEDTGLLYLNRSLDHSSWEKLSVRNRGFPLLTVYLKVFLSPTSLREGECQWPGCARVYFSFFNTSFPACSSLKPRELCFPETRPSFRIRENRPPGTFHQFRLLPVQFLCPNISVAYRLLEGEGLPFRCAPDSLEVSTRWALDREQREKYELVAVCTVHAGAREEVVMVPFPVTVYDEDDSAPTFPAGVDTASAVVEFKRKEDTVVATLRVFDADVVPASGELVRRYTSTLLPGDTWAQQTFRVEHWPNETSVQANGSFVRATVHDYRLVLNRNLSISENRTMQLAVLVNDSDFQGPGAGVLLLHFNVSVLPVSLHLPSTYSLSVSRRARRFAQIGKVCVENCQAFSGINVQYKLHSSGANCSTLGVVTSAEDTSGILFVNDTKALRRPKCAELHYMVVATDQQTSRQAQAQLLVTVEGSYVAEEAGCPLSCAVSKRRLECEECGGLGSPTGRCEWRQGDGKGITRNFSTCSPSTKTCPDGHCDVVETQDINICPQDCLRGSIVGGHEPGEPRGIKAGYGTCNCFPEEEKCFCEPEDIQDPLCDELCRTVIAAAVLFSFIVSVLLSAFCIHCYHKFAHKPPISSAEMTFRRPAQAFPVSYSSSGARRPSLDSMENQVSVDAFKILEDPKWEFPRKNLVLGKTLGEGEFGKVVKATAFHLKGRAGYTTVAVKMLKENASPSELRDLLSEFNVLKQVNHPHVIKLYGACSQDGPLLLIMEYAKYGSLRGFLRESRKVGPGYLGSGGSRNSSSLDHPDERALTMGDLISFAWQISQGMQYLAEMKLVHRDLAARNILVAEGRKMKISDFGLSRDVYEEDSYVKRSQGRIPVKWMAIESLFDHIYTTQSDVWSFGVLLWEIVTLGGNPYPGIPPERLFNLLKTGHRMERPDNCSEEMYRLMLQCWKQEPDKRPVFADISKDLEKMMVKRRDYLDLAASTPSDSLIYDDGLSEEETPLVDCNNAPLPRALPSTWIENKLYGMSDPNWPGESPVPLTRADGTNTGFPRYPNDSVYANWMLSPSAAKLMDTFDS

[22] = biological target: Mitogen-activated protein kinase kinase kinase kinase 5 (Homo sapiens) (UniProt Q9Y4K4); conditions: Compound concentration 1000.0 nM
[23] = biological target: Ribosomal protein S6 kinase alpha-1 (Homo sapiens) (UniProt Q15418); conditions: Compound concentration 1000.0 nM
[24] = biological target: Dual specificity protein kinase CLK1 (Homo sapiens) (UniProt P49759); conditions: Compound concentration 1000.0 nM
[25] = system: Epidermal growth factor receptor (Homo sapiens), P00533 [L858R]; conditions: Compound concentration 1000.0 nM
[26] = biological target: Casein kinase I isoform alpha-like (Homo sapiens) (UniProt Q8N752); conditions: Compound concentration 1000.0 nM
[27] = biological target: Phosphatidylinositol 4,5-bisphosphate 3-kinase catalytic subunit delta isoform (Homo sapiens) (UniProt O00329); conditions: Compound concentration 1000.0 nM
[28] = biological target: Focal adhesion kinase 1 (Homo sapiens) (UniProt Q05397); conditions: Compound concentration 1000.0 nM
[29] = biological target: Epithelial discoidin domain-containing receptor 1 (Homo sapiens) (UniProt Q08345); conditions: Compound concentration 1000.0 nM
[30] = biological target: Phosphatidylinositol 4-phosphate 3-kinase C2 domain-containing subunit beta (Homo sapiens) (UniProt O00750); conditions: Compound concentration 1000.0 nM
[31] = system: Tyrosine-protein kinase ABL1 (Homo sapiens), P00519 [Q252H]; conditions: Compound concentration 1000.0 nM
[32] = biological target: Ribosomal protein S6 kinase alpha-4 (Homo sapiens) (UniProt O75676); conditions: Compound concentration 1000.0 nM; remark: listed apart in the source
[33] = biological target: Atypical kinase COQ8B, mitochondrial (Homo sapiens) (UniProt Q96D53); conditions: Compound concentration 1000.0 nM
[34] = biological target: Uncharacterized serine/threonine-protein kinase SBK3 (Homo sapiens) (UniProt P0C264); conditions: Compound concentration 1000.0 nM
[35] = biological target: Serine/threonine-protein kinase PAK 3 (Homo sapiens) (UniProt O75914); conditions: Compound concentration 1000.0 nM
[36] = system: Phosphatidylinositol 4,5-bisphosphate 3-kinase catalytic subunit alpha isoform (Homo sapiens), P42336 [E542K]; conditions: Compound concentration 1000.0 nM
Phosphatidylinositol 4,5-bisphosphate 3-kinase catalytic subunit alpha isoform (Homo sapiens), P42336 [E542K], sequence (P42336 whole entry E542K, canonical isoform): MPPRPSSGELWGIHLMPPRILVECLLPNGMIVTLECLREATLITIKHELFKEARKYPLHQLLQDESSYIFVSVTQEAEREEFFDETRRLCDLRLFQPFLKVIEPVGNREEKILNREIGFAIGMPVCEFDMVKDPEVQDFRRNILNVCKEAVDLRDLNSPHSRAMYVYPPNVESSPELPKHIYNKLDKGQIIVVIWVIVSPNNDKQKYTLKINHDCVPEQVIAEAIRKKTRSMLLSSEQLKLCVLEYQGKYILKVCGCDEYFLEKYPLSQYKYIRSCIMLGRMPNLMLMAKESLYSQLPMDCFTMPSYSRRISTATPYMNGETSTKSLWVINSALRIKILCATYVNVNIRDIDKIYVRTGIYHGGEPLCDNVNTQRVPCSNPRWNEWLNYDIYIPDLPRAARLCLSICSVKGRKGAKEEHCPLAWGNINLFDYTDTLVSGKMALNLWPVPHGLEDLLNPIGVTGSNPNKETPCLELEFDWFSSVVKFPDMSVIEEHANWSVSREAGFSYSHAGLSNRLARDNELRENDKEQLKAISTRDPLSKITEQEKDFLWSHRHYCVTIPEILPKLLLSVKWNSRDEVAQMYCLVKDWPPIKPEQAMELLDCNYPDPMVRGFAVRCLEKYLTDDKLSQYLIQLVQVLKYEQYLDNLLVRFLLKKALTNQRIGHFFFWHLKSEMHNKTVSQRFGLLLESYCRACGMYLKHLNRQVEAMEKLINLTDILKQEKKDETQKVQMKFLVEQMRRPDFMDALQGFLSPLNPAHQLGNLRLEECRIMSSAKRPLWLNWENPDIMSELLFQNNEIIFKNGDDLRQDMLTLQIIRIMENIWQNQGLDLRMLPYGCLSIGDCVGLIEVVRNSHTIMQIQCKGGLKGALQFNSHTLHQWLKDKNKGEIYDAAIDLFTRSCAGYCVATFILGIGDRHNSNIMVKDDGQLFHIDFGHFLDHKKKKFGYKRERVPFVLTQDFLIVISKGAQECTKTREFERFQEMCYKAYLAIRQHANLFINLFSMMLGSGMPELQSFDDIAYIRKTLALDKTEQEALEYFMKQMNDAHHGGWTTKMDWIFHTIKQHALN

[37] = biological target: Rhodopsin kinase GRK1 (Homo sapiens) (UniProt Q15835); conditions: Compound concentration 1000.0 nM
[38] = biological target: NT-3 growth factor receptor (Homo sapiens) (UniProt Q16288); conditions: Compound concentration 1000.0 nM
[39] = biological target: Serine/threonine-protein kinase MRCK gamma (Homo sapiens) (UniProt Q6DT37); conditions: Compound concentration 1000.0 nM
[40] = biological target: Phosphorylase b kinase gamma catalytic chain, skeletal muscle/heart isoform (Homo sapiens) (UniProt Q16816); conditions: Compound concentration 1000.0 nM
Phosphorylase b kinase gamma catalytic chain, skeletal muscle/heart isoform (Homo sapiens), sequence (Q16816 whole entry, looked up, canonical isoform): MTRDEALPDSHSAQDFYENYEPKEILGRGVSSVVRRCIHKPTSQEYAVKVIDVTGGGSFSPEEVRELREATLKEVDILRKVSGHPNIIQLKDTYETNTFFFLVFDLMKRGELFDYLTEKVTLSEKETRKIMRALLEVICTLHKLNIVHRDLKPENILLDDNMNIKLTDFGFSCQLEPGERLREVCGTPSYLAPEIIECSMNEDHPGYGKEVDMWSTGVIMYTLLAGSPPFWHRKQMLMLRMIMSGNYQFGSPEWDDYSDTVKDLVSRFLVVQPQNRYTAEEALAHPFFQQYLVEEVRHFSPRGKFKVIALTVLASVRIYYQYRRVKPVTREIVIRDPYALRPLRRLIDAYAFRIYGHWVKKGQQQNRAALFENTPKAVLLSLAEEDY

[41] = biological target: MAP kinase-activated protein kinase 5 (Homo sapiens) (UniProt Q8IW41); conditions: Compound concentration 1000.0 nM
[42] = biological target: Serine/threonine-protein kinase MARK2 (Homo sapiens) (UniProt Q7KZI7); conditions: Compound concentration 1000.0 nM
[43] = biological target: Activin receptor type-2B (Homo sapiens) (UniProt Q13705); conditions: Compound concentration 1000.0 nM
[44] = biological target: Serine/threonine-protein kinase RIO1 (Homo sapiens) (UniProt Q9BRS2); conditions: Compound concentration 1000.0 nM
[45] = biological target: RAC-gamma serine/threonine-protein kinase (Homo sapiens) (UniProt Q9Y243); conditions: Compound concentration 1000.0 nM

O=c1nc(-c2ccccn2)sc2ccccc12 [BTZO-1]
inactive: residual activity [1] 100% | residual activity [2] 76% | residual activity [3] 100% | residual activity [4] 82% | residual activity [5] 97% | residual activity [6] 61% | inhibition [7] 20.1% | residual activity [8] 100% | inhibition [9] -1.13% | residual activity [10] 100% | inhibition [11] -3.83% | residual activity [12] 99% | residual activity [13] 99% | residual activity [14] 80% | residual activity [15] 84% | residual activity [16] 84% | residual activity [17] 92% | residual activity [18] 71% | residual activity [19] 100% | residual activity [20] 100% | residual activity [21] 100% | residual activity [22] 100% | residual activity [23] 100% | residual activity [24] 99% | residual activity [25] 81% | residual activity [26] 100% | residual activity [27] 54% | residual activity [28] 90% | residual activity [29] 85% | residual activity [30] 83% | residual activity [31] 82% | residual activity [32] 100% | residual activity [33] 60% | residual activity [34] 100% | residual activity [35] 84% | residual activity [36] 89% | residual activity [37] 76% | residual activity [38] 72% | residual activity [39] 80% | residual activity [40] 84% | residual activity [41] 92% | residual activity [42] 78% | residual activity [43] 100% | residual activity [44] 85% | residual activity [45] 100%

O=C1NC(c2ccccn2)Sc2ccccc21 (stereo not given) [BTZO-4]
inactive: residual activity [1] 71% | residual activity [2] 72% | residual activity [3] 100% | residual activity [4] 75% | residual activity [5] 96% | residual activity [6] 78% | inhibition [7] 32.4% | residual activity [8] 92% | inhibition [9] -0.383% | residual activity [10] 98% | inhibition [11] -2.05% | residual activity [12] 91% | residual activity [13] 100% | residual activity [14] 74% | residual activity [15] 100% | residual activity [16] 72% | residual activity [17] 86% | residual activity [18] 72% | residual activity [19] 92% | residual activity [20] 100% | residual activity [21] 86% | residual activity [22] 100% | residual activity [23] 100% | residual activity [24] 98% | residual activity [25] 86% | residual activity [26] 89% | residual activity [27] 51% | residual activity [28] 79% | residual activity [29] 86% | residual activity [30] 86% | residual activity [31] 73% | residual activity [32] 100% | residual activity [33] 67% | residual activity [34] 86% | residual activity [35] 83% | residual activity [36] 100% | residual activity [37] 81% | residual activity [38] 81% | residual activity [39] 80% | residual activity [40] 76% | residual activity [41] 73% | residual activity [42] 92% | residual activity [43] 100% | residual activity [44] 80% | residual activity [45] 100%
